PMC6661780, “Design, synthesis, antiviral bioactivities and interaction mechanisms of penta-1,4-diene-3-one oxime ether derivatives containing a quinazolin-4(3H)-one scaffold” (BMC Chemistry, 2019)

Target: T1, TMV CP (TMV coat protein) (Tobacco mosaic virus (vulgare), UniProt P69687)
T1 construct: NT-647 dye labelled for MST
Assay: microscale thermophoresis (Monolith NT.[…], NT-647-labelled protein)
Format: binding

T1 sequence (P69687 2-159 limits assumed): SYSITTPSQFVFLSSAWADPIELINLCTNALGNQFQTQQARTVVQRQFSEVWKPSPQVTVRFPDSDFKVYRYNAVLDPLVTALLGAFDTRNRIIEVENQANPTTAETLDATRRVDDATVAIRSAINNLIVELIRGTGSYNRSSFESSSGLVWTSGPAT

Work on `O=c1c2ccccc2ncn1CO/N=C(\C=C\c1ccccn1)/C=C/c1ccccc1OCc1ccc(Cl)cc1Cl` [8k] yielded a Kd of 0.97 ± 0.69 µM.
